Results taken from patent US10682415B2, “Thermogel formulation for combination drug delivery” (Wisconsin Alumni Research Foundation, priority 2013, dated 2020).

Legend:
[1] = neutral pH; cited from earlier work
[2] = system: ES-2-luc human ovarian cancer cells; experiment: In vitro cytotoxicity in ES-2-luc cells
[3] = Initial gel formation experiments (stable thermogel with PLGA-PEG-PLGA); format: physicochemical; conditions: for Thermogel Formation: drug(s) with PLGA-PEG-PLGA polymer, about 1 mg drug per 10 mg polymer
[4] = Drug content incorporated in thermogel quantified by RP-HPLC; format: physicochemical
Description: (§1) The drug delivery system containing a combination of three drugs can be prepared as follows. Paclitaxel (PTX; 6 mg), 17-AAG (6 mg), and rapamycin (RAPA; 3 mg) were combined with 1.5 mL of tent-Butanol (TBA) to obtain a clear solution at 60° C. Separately, cold water was added to PLGA1.5k-PEG1k-PLGA1.5k and the mixture was incubated at refrigeration temperature (4° C.) for 2-3 days to obtain 100 mg/mL of polymer solution. The polymer solution (1.5 mL) was rapidly added to 1.5 mL of drug/TBA mixture (50% TBA). The mixture was rapidly vortexed and warmed to 60° C. for less than one minute to prevent phase separation. The mixture was rapidly frozen with ethanol/dry ice (−72° C.) for 1 hour and lyophilized for 24 hours (below 0.8 bar at −45° C.).
(§2) Samples were diluted with cold water and kept at 4° C. Liquefied samples were passed through about […] (e.g., clear solution (x)) to about 0.2 μm (e.g., clear solution (y)) of a regenerated cellulose membrane filter (RC filter) at 4° C. and concentrations were quantified using RP-HPLC.

[5] = Drug release kinetics of thermogel at 37° C. (cassette MWCO 20,000, first-order model); format: physicochemical
Description: The drug release kinetics of the composition at 37° C. was evaluated. Data is shown below in Table 1-3. […] Each cassette (MWCO 20,000) contained 0.3 mL of Triogel (n=3). […] The profile of the release kinetics was fit into a first-order model (Prism ver 5.0), as illustrated in FIG. 2.
The release kinetics of 1-drug thermogels (37° C.) were analyzed. Separately, compositions having 6 mg, 6 mg, and 3 mg of PTX, 17-AAG, and RAPA mixed with 60, 60, and 30 mg of polymers, respectively, in 1.0 mL of water were evaluated. Each cassette (MWCO 20,000) contained 0.3 mL of Thermogel (n=3). Profile of release kinetics was fit into a first-order model (Prism ver 5.0).

[6] = Rehydration time, gelation time and physical observation of lyophilized sample and gel; format: physicochemical
Description: as §1, §2
In general, an elegant lyophilized cake can improve rehydration time and solubility of the lyophilized cake in aqueous solution.

Structure (SMILES): C=CCNC1=C2C[C@@H](C)C[C@H](OC)[C@H](O)[C@@H](C)/C=C(\C)[C@H](OC(N)=O)[C@@H](OC)/C=C\C=C(/C)C(=O)NC(=CC1=O)C2=O [17-AAG, 17-allylamino-17-demethoxygeldanamycin]
- water solubility [1]: about 0.1 mg/mL
- cytotoxic effect (in words) [2]: did not induce significant cytotoxic effect
- IC50 ([2]; drug(s) dissolved in a mixture of DMSO and medium): 933.6 ± 1.8 nM

Structure (SMILES): CC1=C2C[C@H]3[C@@H](CC=C4C[C@@H](O)CC[C@@]43C)[C@@H]2CC[C@]12O[C@@H]1C[C@H](C)CN[C@H]1[C@H]2C [Cyclopamine (CYP), cyclopamine]
- Thermogel Formation [3]: No
- stable thermogel formation / gel integrity ([3]; warming the 4° C. solution with PLGA-PEG-PLGA to room temperature / 37° C.): a stable thermogel was unable to be prepared

Structure (SMILES): CC(=O)O[C@H]1C(=O)[C@@]2(C)[C@H]([C@H](OC(=O)c3ccccc3)[C@]3(O)C[C@H](OC(=O)[C@H](O)[C@@H](NC(=O)c4ccccc4)c4ccccc4)C(C)=C1C3(C)C)[C@]1(OC(C)=O)CO[C@@H]1C[C@@H]2O [PTX, paclitaxel]
- Thermogel Formation [3]: Yes
- PTX gel incorporation by RP-HPLC analysis ([4]; 6 mg PTX in 150 mg of polymer and 50 wt. % TBA): 5.33 mg
- Final level of drug, PTX ([4]; single, two and three drug compositions, initial level 6.0 mg/mL): 5.8 ± 0.5 mg/mL
- k: release kinetic constant ([5]; release from Triogel (6 mg/6 mg/3 mg PTX/17-AAG/RAPA, 150 mg polymer, 1 mL water), n = 3): 0.0577 ± 0.0230 h⁻¹
- k (release kinetic constant) ([5]; release from two drug thermogel PTX/17-AAG (6 mg/6 mg in 120 mg polymer, 1 mL water)): 0.2037 ± 0.0575 h⁻¹
- k (release kinetic constant) ([5]; release from two drug thermogel PTX/RAPA (6 mg/3 mg in 90 mg polymer, 1 mL water)): 0.1035 ± 0.0354 h⁻¹
- k (release kinetic constant) ([5]; single drug compositions, n = 3): 0.0682 ± 0.0112 h⁻¹
- time to form a gel at room temperature ([6]; room temperature): less than two minutes
- time gel-like form is retained ([6]; room temperature, 6 mg PTX in 150 mg of polymer): more than two weeks
- Physical obs. of gel ([6]; single, two and three drug compositions): Good

Structure (SMILES): CO[C@H]1C[C@@H]2CC[C@@H](C)[C@@](O)(O2)C(=O)C(=O)N2CCCC[C@H]2C(=O)O[C@H]([C@H](C)C[C@@H]2CC[C@@H](O)[C@H](OC)C2)CC(=O)[C@H](C)/C=C(\C)[C@@H](O)[C@@H](OC)C(=O)[C@H](C)C[C@H](C)/C=C/C=C/C=C/1C [RAPA, rapamycin]
- cytotoxic effect (in words) [2]: did not induce significant cytotoxic effect
